Experimental data as given in ChEMBL document CHEMBL3351378, “Phenyl acetate derivatives, fluorine-substituted on the phenyl group, as rapid recovery hypnotic agents with reflex depression” (Eur J Med Chem, 2015).
Activity calls are given as the source filed them. The calls are words filed in the database; no cut-off is given here.

Experiments:
[1] = Therapeutic index, ratio of […] for Sprague-Dawley rat by rotarod test to HD50 for hypnotic activity in iv dosed Sprague-Dawley rat; type: organism-based; conditions: in vivo, read-out: TI
[2] = tested on: Rattus norvegicus; experiment: Induction of hypnotic activity in iv dosed Sprague-Dawley rat assessed as reflex depression 120 secs following injection; type: functional, organism-based
[3] = tested on: Rattus norvegicus; experiment: Induction of hypnotic activity in Sprague-Dawley rat assessed as recovery time to walking at 5.6 mg/kg/min after 20 mins to 3 hrs; type: functional, organism-based
[4] = tested on: Rattus norvegicus; experiment: Induction of hypnotic activity in iv dosed Sprague-Dawley rat assessed as reflex depression 60 secs following injection; type: functional, organism-based
[5] = tested on: Rattus norvegicus; experiment: Induction of hypnotic activity in iv dosed Sprague-Dawley rat assessed as reflex depression 30 secs following injection; type: functional, organism-based
[6] = Toxicity in Sprague-Dawley rat assessed as motor coordination by rotarod test; type: organism-based; conditions: in vivo
[7] = tested on: Rattus norvegicus; experiment: Induction of hypnotic activity in iv dosed Sprague-Dawley rat assessed as loss of righting reflex; type: functional
[8] = tested on: Rattus norvegicus; experiment: Induction of hypnotic activity in iv dosed Sprague-Dawley rat assessed as time duration of loss of righting reflex; type: functional
[9] = tested on: Rattus norvegicus; experiment: Induction of hypnotic activity in iv dosed Sprague-Dawley rat assessed as reflex depression 180 secs following injection; type: functional, organism-based
[10] = tested on: Rattus norvegicus; experiment: Induction of hypnotic activity in iv dosed Sprague-Dawley rat assessed as reflex depression 20 secs following injection; type: functional, organism-based
[11] = tested on: Rattus norvegicus; experiment: Induction of hypnotic activity in iv dosed Sprague-Dawley rat assessed as reflex depression 10 secs following injection; type: functional, organism-based
[12] = target: Glutamate NMDA receptor (Rattus norvegicus) (UniProt P35439+Q00959+Q00960+Q00961+Q62645+Q8VHN2+Q9R1M7); experiment: Displacement of [3H]MK801 from NMDA receptor in Sprague-Dawley rat cerebral cortex membrane at 50 umol by liquid scintillation counting; type: tissue-based

| Structure (SMILES) | selectivity ratio [1] | Activity [2] | Activity [3] | Activity [4] | Activity [5] | TD50 [6] | HD50 [7] | Time [8] | Activity [9] | Activity [10] | Activity [11] | Activity [12] |
| --- | --- | --- | --- | --- | --- | --- | --- | --- | --- | --- | --- | --- |
| CCOC(=O)Cc1cc(OCC)c(OCC(=O)N(CC)CC)cc1F | 14.4 | Active | inactive | Active | Active | 74.5 mg/kg | 5.6 mg/kg | 209.6 s | Active | Active | inactive | 56.6% |
| CCN(CC)C(=O)COc1c(F)cc(CC(=O)OC(C)C)cc1OC | 12.4 |  |  |  |  | 176 mg/kg | 14.2 mg/kg | 79.5 s |  |  |  | inactive |
| CCCOC(=O)Cc1cc(F)c(OCC(=O)N(CC)CC)c(OC)c1 | 11.2 |  |  |  |  | 188 mg/kg | 16.8 mg/kg | 68.9 s |  |  |  | inactive |
| CCOc1cc(CC(=O)OC(C)C(F)(F)F)cc(F)c1OCC(=O)N(CC)CC (stereo not given) | 9.9 |  |  |  |  | 181 mg/kg | 18.3 mg/kg | 88.8 s |  |  |  | inactive |
| CCN(CC)C(=O)COc1cc(F)c(CC(=O)OC(C)C(F)(F)F)cc1OC (stereo not given) | 9.7 |  |  |  |  | 151 mg/kg | 15.6 mg/kg | 88.9 s |  |  |  | inactive |
| CCOC(=O)Cc1cc(OC)c(OCC(=O)N(CC)CC)cc1F | 11.3 |  |  |  |  | 113 mg/kg | 10 mg/kg | 82.2 s |  |  |  | inactive |
| CCCOc1cc(CC(=O)OC(C)C)c(F)cc1OCC(=O)N(CC)CC | 9.6 |  |  |  |  | 102 mg/kg | 10.6 mg/kg | 133.9 s |  |  |  | inactive |
| CCCOC(=O)Cc1ccc(OCC(=O)N(CC)CC)c(OCC)c1F | 10.4 |  |  |  |  | 173 mg/kg | 16.6 mg/kg | 81.4 s |  |  |  | inactive |
| CCCOC(=O)Cc1ccc(OCC(=O)N(CC)CC)c(OC)c1 [PROPANIDID] | 9.6 |  |  |  |  | 80.6 mg/kg | 8.5 mg/kg | 93.3 s |  | Active | Active | inactive |
| CCN(CC)C(=O)COc1ccc(CC(=O)OC(C)C)c(F)c1OC | 7.9 |  |  |  |  | 141 mg/kg | 17.9 mg/kg | 91.4 s |  |  |  | inactive |
| CCOc1c(OCC(=O)N(CC)CC)ccc(CC(=O)OC(C)C(F)(F)F)c1F (stereo not given) | 7.4 |  |  |  |  | 182 mg/kg | 24.6 mg/kg | 89.8 s |  |  |  | inactive |
| CCOC(=O)Cc1ccc(OCC(=O)N(CC)CC)c(OC)c1F | 9.3 |  |  |  |  | 201 mg/kg | 21.6 mg/kg | 89.8 s |  |  |  | inactive |
| CCOc1cc(CC(=O)OC(C)C)c(F)cc1OCC(=O)N(CC)CC | 12.7 |  |  |  |  | 60.9 mg/kg | 4.8 mg/kg | 226.2 s |  |  |  | inactive |
| CCN(CC)C(=O)COc1c(F)cc(CC(=O)OC(C)C(F)(F)F)cc1OC (stereo not given) | 9.6 |  |  |  |  | 148 mg/kg | 15.4 mg/kg | 84.2 s |  |  |  | inactive |
| CCCOC(=O)Cc1cc(F)c(OCC(=O)N(CC)CC)c(OCC)c1 | 11.8 |  |  |  |  | 175 mg/kg | 14.8 mg/kg | 76.6 s |  |  |  | inactive |
| CCN(CC)C(=O)COc1cc(F)c(CC(=O)OCC(F)(F)F)cc1OC | 9.3 |  |  |  |  | 171 mg/kg | 18.4 mg/kg | 75.4 s |  |  |  | inactive |
| CCOC(=O)Cc1ccc(OCC(=O)N(CC)CC)c(OCC)c1F | 10.1 |  |  |  |  | 200 mg/kg | 19.8 mg/kg | 77.7 s |  |  |  | inactive |
| CCOc1cc(CC(=O)OC(C)CC)c(F)cc1OCC(=O)N(CC)CC (stereo not given) | 10.8 |  |  |  |  | 90.7 mg/kg | 8.4 mg/kg | 145.3 s |  |  |  | inactive |

| Structure (SMILES) | selectivity ratio [1] | Activity [2] | Activity [3] | Activity [4] | Activity [5] | TD50 [6] | HD50 [7] | Time [8] | Activity [9] | Activity [10] | Activity [11] | Activity [12] |
| --- | --- | --- | --- | --- | --- | --- | --- | --- | --- | --- | --- | --- |
| CCOc1c(OCC(=O)N(CC)CC)ccc(CC(=O)OCC(F)(F)F)c1F | 7.7 |  |  |  |  | 162 mg/kg | 21.1 mg/kg | 83.3 s |  |  |  | inactive |
| CCCCOC(=O)Cc1cc(OCC)c(OCC(=O)N(CC)CC)cc1F | 11.2 |  |  |  |  | 109 mg/kg | 9.7 mg/kg | 158.3 s |  |  |  | inactive |
| CCCOC(=O)Cc1ccc(OCC(=O)N(CC)CC)c(OC)c1F | 8.7 |  |  |  |  | 169 mg/kg | 19.4 mg/kg | 76.6 s |  |  |  | inactive |
| CCOc1cc(CC(=O)OC(C)C)cc(F)c1OCC(=O)N(CC)CC | 13.1 |  |  |  |  | 256 mg/kg | 19.5 mg/kg | 92.7 s |  |  |  | inactive |
| CCN(CC)C(=O)COc1c(F)cc(CC(=O)OCC(F)(F)F)cc1OC | 9.8 |  |  |  |  | 165 mg/kg | 16.9 mg/kg | 71.1 s |  |  |  | inactive |
| CCCOC(=O)Cc1cc(OCC)c(OCC(=O)N(CC)CC)cc1F | 13.3 |  |  |  |  | 70.5 mg/kg | 5.3 mg/kg | 215.3 s |  |  |  | inactive |
| CCOc1c(OCC(=O)N(CC)CC)ccc(CC(=O)OC(C)C)c1F | 9.2 |  |  |  |  | 165 mg/kg | 17.9 mg/kg | 102.9 s |  |  |  | inactive |
| CCN(CC)C(=O)COc1ccc(CC(=O)OCC(F)(F)F)c(F)c1OC | 8.1 |  |  |  |  | 185 mg/kg | 22.8 mg/kg | 88.7 s |  |  |  | inactive |
| CCN(CC)C(=O)COc1cc(F)c(CC(=O)OC(C)C)cc1OC | 13.5 |  |  |  |  | 155 mg/kg | 11.5 mg/kg | 86.6 s |  |  |  | inactive |
| CCOC(=O)Cc1cc(F)c(OCC(=O)N(CC)CC)c(OCC)c1 | 12.1 |  |  |  |  | 224 mg/kg | 18.5 mg/kg | 66.5 s |  |  |  | inactive |
| CCCOC(=O)Cc1cc(OC)c(OCC(=O)N(CC)CC)cc1F | 12.6 |  |  |  |  | 199 mg/kg | 15.8 mg/kg | 79.3 s |  |  |  | inactive |
| CCOC(=O)Cc1cc(F)c(OCC(=O)N(CC)CC)c(OC)c1 | 13.9 |  |  |  |  | 239 mg/kg | 17.2 mg/kg | 72 s |  |  |  | inactive |
| CCN(CC)C(=O)COc1ccc(CC(=O)OC(C)C(F)(F)F)c(F)c1OC (stereo not given) | 7.4 |  |  |  |  | 158 mg/kg | 21.4 mg/kg | 92.6 s |  |  |  | inactive |
| CCOc1cc(CC(=O)OCC(F)(F)F)cc(F)c1OCC(=O)N(CC)CC | 8.7 |  |  |  |  | 127 mg/kg | 14.6 mg/kg | 76.6 s |  |  |  | inactive |
| CC(C)c1cccc(C(C)C)c1O [PROPOFOL] | 5.9 |  |  |  |  | 30.7 mg/kg | 5.3 mg/kg | 349.3 s |  |  |  |  |
| CCCOC(=O)Cc1ccc(OCC(=O)N(CC)CC)c(OCC)c1 [AZD-3043] | 10.1 |  |  |  |  | 82.8 mg/kg | 7.9 mg/kg | 74.2 s |  | Active | Active | inactive |
| CCOc1cc(CC(=O)OC(C)C(F)(F)F)c(F)cc1OCC(=O)N(CC)CC (stereo not given) | 10.7 |  |  |  |  | 124 mg/kg | 11.6 mg/kg | 238.3 s |  |  |  | inactive |
| CCOc1cc(CC(=O)OCC(F)(F)F)c(F)cc1OCC(=O)N(CC)CC | 11.5 |  |  |  |  | 113 mg/kg | 9.8 mg/kg | 186.1 s |  |  |  | inactive |
